Test results published in ChEMBL document CHEMBL3351388, “Identification of two novel RET kinase inhibitors through MCR-based drug discovery: design, synthesis and evaluation” (Eur J Med Chem, 2014).

Target: Proto-oncogene tyrosine-protein kinase receptor Ret (Homo sapiens, UniProt P07949)
Test: Inhibition of RET (unknown origin) pre-incubated for 60 mins before substrate addition in presence of 9 uM ATP by microfluidic assay

Chain of Proto-oncogene tyrosine-protein kinase receptor Ret (P07949 whole entry): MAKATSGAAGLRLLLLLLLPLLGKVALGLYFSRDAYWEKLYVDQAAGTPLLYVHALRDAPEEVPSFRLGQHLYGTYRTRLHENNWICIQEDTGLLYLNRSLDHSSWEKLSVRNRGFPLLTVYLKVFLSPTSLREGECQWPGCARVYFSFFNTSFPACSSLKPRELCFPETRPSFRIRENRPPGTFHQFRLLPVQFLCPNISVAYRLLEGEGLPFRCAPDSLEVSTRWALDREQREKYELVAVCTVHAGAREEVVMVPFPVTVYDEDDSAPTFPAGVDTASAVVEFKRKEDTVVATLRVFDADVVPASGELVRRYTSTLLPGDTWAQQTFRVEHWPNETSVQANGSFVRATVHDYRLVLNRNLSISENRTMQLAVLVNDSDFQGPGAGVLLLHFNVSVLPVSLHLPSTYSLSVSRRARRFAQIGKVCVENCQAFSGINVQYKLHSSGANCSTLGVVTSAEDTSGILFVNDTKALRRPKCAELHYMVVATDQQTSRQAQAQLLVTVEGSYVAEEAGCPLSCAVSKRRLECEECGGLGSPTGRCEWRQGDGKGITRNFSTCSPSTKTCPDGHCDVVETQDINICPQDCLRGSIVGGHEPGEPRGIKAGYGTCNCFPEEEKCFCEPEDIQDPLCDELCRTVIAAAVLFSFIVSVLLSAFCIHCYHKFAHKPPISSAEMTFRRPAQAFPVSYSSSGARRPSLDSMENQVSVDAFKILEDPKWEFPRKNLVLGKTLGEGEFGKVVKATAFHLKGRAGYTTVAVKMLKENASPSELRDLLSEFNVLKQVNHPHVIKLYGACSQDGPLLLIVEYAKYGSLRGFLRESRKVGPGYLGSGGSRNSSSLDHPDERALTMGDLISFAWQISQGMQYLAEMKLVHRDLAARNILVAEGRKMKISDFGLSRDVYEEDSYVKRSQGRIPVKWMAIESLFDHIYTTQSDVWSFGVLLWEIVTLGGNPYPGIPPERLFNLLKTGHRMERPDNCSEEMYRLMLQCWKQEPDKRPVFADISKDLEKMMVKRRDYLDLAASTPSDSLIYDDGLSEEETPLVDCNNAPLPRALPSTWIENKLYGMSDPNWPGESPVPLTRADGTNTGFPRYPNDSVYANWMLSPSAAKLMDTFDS

| IC50 [µM] | SMILES |
| --- | --- |
| > 100 | O=C(Cc1ccc(-c2ccc3nccn3c2)cc1)Nc1cccc(Br)c1 |
| > 100 | Cc1cccc(NC(=O)Cc2ccc(-c3ccc4nccn4c3)cc2)c1 |
| > 100 | O=C(Cc1ccc(-c2ccc3nccn3c2)cc1)Nc1cccc(F)c1 |
